Source: PubChem BioAssay (NCI)
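Briefly, cells in 96-well plates were exposed to five compound concentrations for 48 h, and endpoints were estimated by linear interpolation. TGI marks complete inhibition of growth.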

Columns and labels:
Experiment in all cases: NCI anticancer screen, dose series, 48 h
OVCAR-3 ovarian = tested on: OVCAR-3 ovarian
HT29 colon = tested on: HT29 colon
786-0 renal = tested on: 786-0 renal
NCI-H460 lung = tested on: NCI-H460 lung
LOX IMVI melanoma = tested on: LOX IMVI melanoma
HCC-2998 colon = tested on: HCC-2998 colon
MDA-MB-435 = tested on: MDA-MB-435
OVCAR-4 ovarian = tested on: OVCAR-4 ovarian
DU-145 prostate = tested on: DU-145 prostate
NCI-H226 lung = tested on: NCI-H226 lung
MDA-N = tested on: MDA-N
SW-620 colon = tested on: SW-620 colon
RXF 393 renal = tested on: RXF 393 renal
ACHN renal = tested on: ACHN renal
SK-MEL-5 melanoma = tested on: SK-MEL-5 melanoma
KM12 colon = tested on: KM12 colon
SK-MEL-2 melanoma = tested on: SK-MEL-2 melanoma
UO-31 renal = tested on: UO-31 renal
A498 renal = tested on: A498 renal

Compound | TGI (OVCAR-3 ovarian) [µM] | TGI (HT29 colon) [µM] | TGI (786-0 renal) [µM] | TGI (NCI-H460 lung) [µM] | TGI (LOX IMVI melanoma) [µM] | TGI (HCC-2998 colon) [µM] | TGI (MDA-MB-435) [µM] | TGI (OVCAR-4 ovarian) [µM] | TGI (DU-145 prostate) [µM] | TGI (NCI-H226 lung) [µM] | TGI (MDA-N) [µM] | TGI (SW-620 colon) [µM] | TGI (RXF 393 renal) [µM] | TGI (ACHN renal) [µM] | TGI (SK-MEL-5 melanoma) [µM] | TGI (KM12 colon) [µM] | TGI (SK-MEL-2 melanoma) [µM] | TGI (UO-31 renal) [µM] | TGI (A498 renal) [µM]
C[C@]12CC[C@@H]3c4cc(OCC(F)(F)F)c(O)cc4C(=O)C[C@H]3[C@@H]1CC[C@@H]2O | 7.59 | 38.4 | > 100 | > 100 | > 100 | 38.7 | > 25.4 | > 100 | > 100 | > 100 | 5.69 | > 100 | 58.5 | > 100 | > 82.8 | > 64.4 | > 26.1 | > 100 | > 100
S=C(N/N=C(/c1ccccc1)c1ccccn1)Nc1ccccc1Cl | 11.2 | 13.4 | 13.1 | 6.24 | 23.3 | 8.11 | 8.77 | 18.2 | 17.8 | 2.67 | 13.6 | 14.8 | 4.24 | 9.46 | 2.63 | 16.2 | 1.8 | 5.96 | 7.19
O=[N+]([O-])c1cccc2nc3ccccc3c(NCCc3cccc[n+]3[O-])c12 | 0.11 | 0.0628 | 0.249 | 0.174 | 0.121 | < 0.01 | < 0.0184 | 0.212 | < 0.0277 | 0.562 | 0.0464 | 0.197 | 0.11 | 0.039 | < 0.01 | 0.552 | 0.528 | – | 0.225
CC1CC[C@@]2(OC1)OC1C[C@H]3[C@@H]4C/C(=N\N(C)C)[C@@]5(O)CC(O)CC[C@]5(C)[C@H]4CC[C@]3(C)C1[C@@H]2C (some centres undefined) | > 100 | 49.2 | > 100 | > 100 | > 100 | > 100 | > 100 | > 100 | > 100 | > 100 | 52.6 | > 100 | 61.2 | > 100 | > 100 | > 100 | > 100 | > 100 | > 100
CN(C)CCNc1ccc2c(=O)n(CCN(C)C)c(=O)n3c4ccc([N+](=O)[O-])cc4c(=O)c1c23 | 2.27 | 0.658 | 2.74 | 1.53 | 1.1 | 2.27 | 1.83 | 2.8 | 6.54 | 4.01 | 1.38 | 1.78 | 0.996 | 3.83 | 2.23 | 4.95 | 1.31 | 4.06 | 5.55
CCCCn1c(C)c(C(=O)OCC)s/c1=N/Nc1nc2ccccc2nc1-c1ccccc1 | > 100 | > 100 | > 100 | > 100 | > 100 | > 100 | > 100 | > 100 | 94.1 | > 100 | > 100 | > 100 | > 100 | > 100 | > 100 | – | > 100 | – | > 100
CC(C)NC(=O)CN1CCN(C2=CC(=O)c3c(O)ccc(O)c3C2=O)CC1 | 6.56 | 12.3 | 42.4 | 29.1 | 19.6 | 30.4 | 3.76 | 20.3 | 29.7 | > 68.8 | 16.3 | 14.4 | 33.2 | 54.1 | 7.78 | 33.2 | 34.3 | 33.2 | 46
O=P(Oc1ccccc1)(Oc1ccccc1)Oc1c[nH]c2ccccc12 | 39.1 | 22 | 33.1 | 26.7 | 49.9 | 17.9 | 28.3 | 14.5 | > 100 | 31.3 | 24.3 | 36 | 29.2 | – | 24.8 | > 100 | 20.2 | 19.7 | 29.1
O=C(NNC(=S)Nc1ccccc1)c1ccccc1Nc1ccccc1C(=O)NNC(=S)Nc1ccccc1 | 38.4 | 76.6 | 41.5 | 49 | 26 | 37.1 | > 100 | > 100 | > 100 | 77.9 | > 100 | > 100 | 45.4 | > 100 | 58.2 | > 100 | 47.1 | 44.6 | > 100
COc1ccc(N=C(C)c2ccncc2)cc1 | > 100 | > 100 | > 100 | > 100 | > 100 | > 100 | > 100 | > 100 | > 100 | > 100 | > 100 | > 100 | > 100 | > 100 | > 100 | > 100 | > 100 | > 100 | > 100
CCCCCNc1nonc1N | > 100 | > 100 | > 100 | > 100 | > 100 | > 100 | > 100 | > 100 | > 100 | > 100 | > 100 | > 100 | > 100 | > 100 | > 100 | > 100 | > 100 | > 100 | > 100
COc1cc(CCCOC(=O)/C=C/c2ccc(O)c(O)c2)cc(O)c1O | > 100 | 98.7 | > 100 | > 100 | 45.6 | > 100 | > 100 | > 100 | > 100 | > 100 | 53.7 | 35.9 | > 100 | > 100 | > 100 | > 100 | > 100 | > 100 | > 100
